Experimental data as given in patent publication US9206412B2, “Thioxothiazolidine inhibitors” (Colorado State University Research Foundation, priority 2012, dated 2015).
Where “and” joins values, the source holds several entries; their conditions need not be identical. Equal values may be shown once. Entries after “also recorded” stand apart in the source; their conditions may differ. Read-outs that look alike come from different tables or passages of the source.

What was measured:
[1] = molecular target: T1, dengue virus capping enzyme (Dengue virus type 2, UniProt P29990); type: binding
T1 sequence (P29990 2492-2758): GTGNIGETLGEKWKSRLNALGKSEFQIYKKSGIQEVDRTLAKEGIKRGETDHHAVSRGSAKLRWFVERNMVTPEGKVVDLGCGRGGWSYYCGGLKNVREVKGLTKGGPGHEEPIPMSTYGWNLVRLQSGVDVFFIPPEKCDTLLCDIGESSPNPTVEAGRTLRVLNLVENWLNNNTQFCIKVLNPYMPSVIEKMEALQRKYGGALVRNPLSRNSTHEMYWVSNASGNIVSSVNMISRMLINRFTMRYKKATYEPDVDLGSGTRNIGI

[2] = test system: dengue type 2 virus subgenomic replicon (BHK-pD2hRucPac); experiment: Antiviral (replicon) assay, Renilla luciferase; type: cell-based
[3] = molecular target: T1, dengue virus capping enzyme; experiment: biochemical; type: binding, dengue virus type 2 (strain 16681)
[4] = molecular target: yellow fever virus capping enzyme (Yellow fever virus, UniProt P03314); experiment: biochemical; type: binding, yellow fever virus (strain 17D)
Chain of yellow fever virus capping enzyme (P03314 2507-2774 limits assumed): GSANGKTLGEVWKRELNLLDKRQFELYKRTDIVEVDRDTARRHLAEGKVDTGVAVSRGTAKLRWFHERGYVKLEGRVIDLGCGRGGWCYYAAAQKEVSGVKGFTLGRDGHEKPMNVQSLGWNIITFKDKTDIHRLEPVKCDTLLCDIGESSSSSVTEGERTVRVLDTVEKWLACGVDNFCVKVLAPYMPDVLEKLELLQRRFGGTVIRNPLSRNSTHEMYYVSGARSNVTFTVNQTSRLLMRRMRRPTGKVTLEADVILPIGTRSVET

[5] = test system: BHK-pD2hRucPac cells; experiment: Cell viability (CellTiter-Glo) in replicon assay; conditions: read-out: Replicon Assay_CC50_M; Table 2-1
[6] = molecular target: WNV; experiment: Ki determination, fluorescence polarization (FP_WNV_KI); conditions: read-out: FP_WNV_KI_AVG_WNV_M; Table 2-1
[7] = test system: Kunjin virus NS5 protein; experiment: Western blot analysis of NS5 in Kunjin infected BHK cells; conditions: MOI=0.01, 48 hours post-infection, increasing concentrations
[8] = test system: yellow fever (17D) virus; type: cell-based
[9] = test system: BHK cells
[10] = test system: Sindbis virus pBG451; type: cell-based
[11] = test system: West Nile virus (Kunjin subtype); type: cell-based
[12] = test system: West Nile virus (Kunjin) RNA; experiment: qRT-PCR of Kunjin viral RNA in culture media; type: cell-based
Procedure: Quantitative Reverse Transcriptase Real-Time PCR Analysis. West Nile virus (Kunjin) RNA was extracted from cell culture media with Trizol LS (Invitrogen, La Jolla, Calif.) following the manufacturer's protocol. Quantitative reverse transcriptase real-time PCR reactions for Kunjin genomic RNA were performed using the Brilliant III Ultra-Fast SYBR QRT-PCR Master Mix (Catalog # 600886, Agilent, Santa Clara, Calif.) with primers Fwd 6170 (5′-[…] (SEQ ID NO: 1)) and Rev 6278 (5′-[…] (SEQ ID NO: 2)). To set up qRT-PCR reactions, 2 μL of extracted RNA was added to 5 μL of 2× master mix, 1 μL of 5 μM Fwd 6170 primer, 1 μL of 5 μM Rev 6278 primer, and 1 μL of 100 mM DTT in 96-well PCR plates with optically clear sealing films. No RNA and no primer controls were included in each experiment. qRT-PCR reactions were performed on a BioRad CFX384 real-time PCR thermal cycler using the following cycling conditions: Reverse transcriptase step=50° C., 10 minutes; denature step=95° C., 3 minutes; PCR (40 cycles)=95° C., 5 seconds/60° C., 10 seconds. Melt curves were performed at the end of each run, to verify the specificity of the detected SYBR signal. Cq values were determined by setting the threshold to 40 for all experiments. Standard curves were generated from diluted media containing Kunjin virus of known titer (PFU/mL), and the Cq values from experimental samples were compared to the standard curve to establish PFU equivalent/mL values for each sample (y=−3.475x+27.577, y=Cq , X=Log10(PFU)). The limit of detection in these experiments was determined to be 10 PFU equivalents/mL. All experiments were performed three times, and the average and standard error of the mean reported.

[13] = Cell viability (CellTiter-Glo) in replicon assay; conditions: hamster, BHK-pD2hRucPac cells (dengue replicon cells)
[14] = molecular target: dengue capping enzyme (Dengue virus type 2, UniProt P29990); experiment: Guanylation inhibition assay
[15] = Table 2-1, read-out: Replicon Assay_EC50_M
[16] = Dengue virus, 72 h, read-out: Replicon EC50, Table 3, 72 hours
[17] = Dengue virus, 72 h, read-out: Replicon EC50, 72 hours
[18] = Dengue virus, read-out: Replicon Assay_EC50_M, Table 2-1
[19] = Replicon Assay_CC50_M, Table 2-1
[20] = Replicon CC50, Table 3, 72 hours

| Structure (SMILES) | EC50 [2, 15] | Ki ([3]; read-out: FP_DEN_Ki_AVG_DEN_M) | Ki ([4]; read-out: FP_YF_KI_AVG_YF_M) | CC50 [5] | also measured |
| --- | --- | --- | --- | --- | --- |
| O=C(O)CN1C(=O)/C(=C\c2ccc(-c3ccc(Cl)cc3Cl)o2)SC1=S [2044-5240] |  |  |  |  | HTS Activity [1]: M (key: Weak (W)=50%-75% reduction in FP signal; Moderate (M)=76%-90% reduction; Strong (S)=>90% reduction) |
| CC(=C1SC(=S)NC1=O)c1ccc(C)cc1 [BG137] | 55 µM | 19 µM | 25 µM | 67 µM |  |
| O=C(O)C(Cc1ccccc1)N1C(=O)C(=CC=Cc2ccccc2)SC1=S (stereo not shown) [BG138] | 32 µM | 3 µM | 4 µM | 33 µM |  |
| O=C(O)CCN1C(=O)C(=Cc2ccc(-c3ccccc3[N+](=O)[O-])o2)SC1=S [BG139] | 51 µM | 5 µM | 7 µM | 56 µM |  |
| O=C(CN1C(=O)S/C(=C\c2ccccc2F)C1=O)Nc1ccccc1C(=O)O [BG142] | 102 µM | 23 µM | 51 µM | 137 µM |  |
| O=C1NC(=O)C(=Cc2ccc(Br)cc2)S1 [BG143] | 50 µM | 20 µM | 24 µM | 60 µM |  |
| COc1cc(/C=C2\SC(=O)N(Cc3ccc(F)cc3)C2=O)c(Br)cc1OCC(=O)O [BG163] | 32 µM | 5 µM | 9 µM | 38 µM |  |
| CC(C)N1C(=O)SC(=Cc2ccccc2OCc2ccc(C(=O)O)cc2)C1=O [BG166] | 28 µM | 7 µM | 14 µM | 33 µM |  |
| COc1ccc2nc(N3CCCCC3)c(C=C3SC(=S)NC3=O)cc2c1 [BG168] | 13 µM | 2 µM | 2 µM | 12 µM |  |
| CCOc1cc(/C=C2\SC(=S)NC2=O)ccc1OS(=O)(=O)c1ccccc1[N+](=O)[O-] [BG169] | 26 µM | 2 µM | 2 µM | 29 µM |  |
| Cc1cc(C)cc(-n2c(C)cc(/C=C3\SC(=O)NC3=O)c2C)c1 [BG172] | 20 µM | 11 µM | 14 µM | 26 µM |  |
| CN1C(=O)S/C(=C\c2ccc(-c3ccc(C(=O)O)c(Cl)c3)o2)C1=O [BG175] | 78 µM | 13 µM | 17 µM | 82 µM |  |
| CC(C)(C)c1cc(C=C2SC(=S)NC2=O)cc(C(C)(C)C)c1O [BG179] | 15 µM | 2 µM | 1 µM | 20 µM |  |
| CC(C)c1ccc(/C=C2\SC(=S)N(CC(=O)O)C2=O)cc1 [BG182] | 80 µM | 18 µM | 17 µM | 93 µM |  |
| CC(C)(C)c1ccc(/C=C2\SC(=S)N(CCC(=O)O)C2=O)cc1 [BG295] | 30 µM | 2 µM | 2 µM | 114 µM | Ki [6]: 8 µM |
| COc1c(I)cc(I)cc1/C=C1\SC(=S)N(CC(=O)O)C1=O [BG308] | 97 µM | 2 µM | 4 µM | 276 µM |  |
| O=C1NC(=S)SC1=Cc1cccc(Cl)c1Cl [BG333] | 9 µM | 7 µM | 12 µM | 11 µM |  |
| COc1c(I)cc(I)cc1/C=C1\SC(=S)N(CC(=O)O)C1=O [BG-5] |  |  |  |  | HTS Activity [1]: S (key: Weak (W)=50%-75% reduction in FP signal; Moderate (M)=76%-90% reduction; Strong (S)=>90% reduction) |
| O=C(O)CN1C(=O)/C(=C/c2ccc(Oc3ccccc3)cc2)SC1=S [BG-115] |  |  |  |  | HTS Activity [1]: M (key: Weak (W)=50%-75% reduction in FP signal; Moderate (M)=76%-90% reduction; Strong (S)=>90% reduction) |
| O=C(O)CN1C(=O)/C(=C/c2ccc(OCc3ccccc3)cc2)SC1=S [BG-170] |  |  |  |  | HTS Activity [1]: W (key: Weak (W)=50%-75% reduction in FP signal; Moderate (M)=76%-90% reduction; Strong (S)=>90% reduction) |
| CC(C)(C)c1ccc(/C=C2/SC(=S)N(CCC(=O)O)C2=O)cc1 [BG-323, (E)-3-(5-(4-tert-butylbenzylidene)-4-oxo-2-thioxo-1,3-thiazolidin-3-yl)propanoic acid] |  |  |  |  | viral NS5 protein level [7]: significant decrease in NS5; EC50 [2, 16]: 30.8 µM; EC50 [2, 17]: 30.8 µM; EC50 [2, 18]: 30.8 µM; EC50 ([2]; read-out: Replicon EC50, 72 hours): ~30 µM; Ki ([3]; FP_DEN_Ki_AVG_DEN_M): 7.5 µM; Ki ([3]; Ki (GTP displacement)): ~7 µM and 7.5 µM and ~10 µM; reduction of virus titers [8]: slightly less robust effect; Ki ([4]; FP_YF_KI_AVG_YF_M): 9.5 µM; Ki ([4]; Ki (GTP binding)): ~7 µM; cell viability [9]: minor reduction in cell viability; Renilla signal of Sindbis virus [10]: Only a very minor reduction in Renilla signal; also recorded: insensitive; reduction of virus titers [11]: ~3 logs; viral RNA in media with replacement of compound every 24 hours ([12]; 100 μM, fresh media every 24 hours for 72 hours): significantly reduced viral RNA in media over time; viral RNA detectable in the media ([12]; BHK, Kunjin MOI=0.01, 50 μM or 100 μM, 72 hours post-infection): significantly reduced; activity after pre-incubation in media at 37° C. ([12]; pre-incubated 3, 2, 1, or 0 days, 50 μM, Kunjin RNA at 72 hours): becomes less active over longer incubation periods; CC50 at 72 h [13, 19]: 184 µM; CC50 at 72 h [13, 20]: 184 µM; CC50 at 72 h ([13]; Replicon CC50, text): 184 µM |
| O=C(O)CCN1C(=O)/C(=C/c2cccc(Cl)c2Cl)SC1=S [BG-324] |  |  |  |  | EC50 [2, 16]: 8.5 µM; EC50 [2, 18]: 9 µM; Ki ([3]; FP_DEN_Ki_AVG_DEN_M): 10 µM; Ki ([3]; Ki (GTP displacement)): 9.9 µM; IC50 [14]: 155 µM; Ki ([4]; FP_YF_KI_AVG_YF_M): 16 µM; CC50 at 72 h [13, 19]: 12 µM; CC50 at 72 h [13, 20]: 12 µM |
| O=C(O)CCN1C(=O)/C(=C/c2ccc(Cl)cc2Cl)SC1=S [BG-330] |  |  |  |  | EC50 [2, 16]: 8.7 µM; EC50 [2, 18]: 9 µM; Ki ([3]; FP_DEN_Ki_AVG_DEN_M): 10 µM; Ki ([3]; Ki (GTP displacement)): 9.8 µM; IC50 [14]: 2.6 µM; Ki ([4]; FP_YF_KI_AVG_YF_M): 9 µM; CC50 at 72 h [13, 19]: 11 µM; CC50 at 72 h [13, 20]: 12 µM |
| NC(=O)c1ncn([C@@H]2O[C@H](CO)[C@@H](O)[C@H]2O)n1 [Ribavirin, reference compound] |  |  |  |  | EC50 [2, 17]: 12 µM; CC50 at 72 h ([13]; Replicon CC50, text): 49 µM |
